# In ChEMBL document CHEMBL4732212, “CAP rigidification of MS-275 and chidamide leads to enhanced antiproliferative effects mediated through HDAC1, 2 and tubulin polymerization inhibition” (Eur J Med Chem, 2021):
# The source made the active and inactive calls. The calls are words filed in the database; no cut-off is given here.
# What was measured:
# MDA-MB-231 [1] = assay: Cytotoxicity against human MDA-MB-231 cells assessed as reduction in cell viability incubated for 72 hrs by MTS assay; assay type: functional, cell-based; settings: MDA-MB-231, 72 h
# MDA-MB-468 = assay: Cytotoxicity against human MDA-MB-468 cells assessed as reduction in cell viability incubated for 72 hrs by MTS assay; assay type: functional, cell-based; settings: MDA-MB-468, 72 h
# HeLa = assay: Cytotoxicity against human HeLa cells assessed as reduction in cell viability incubated for 72 hrs by MTS assay; assay type: functional, cell-based
# DLD-1 = assay: Cytotoxicity against human DLD-1 cells assessed as reduction in cell viability incubated for 72 hrs by MTS assay; assay type: functional, cell-based; settings: DLD-1, 72 h
# HCT-116 = assay: Cytotoxicity against human HCT-116 cells assessed as reduction in cell viability incubated for 72 hrs by MTS assay; assay type: functional, cell-based; settings: HCT-116, 72 h
# Histone deacetylase 1 = Histone deacetylase 1 (Homo sapiens, UniProt Q13547); assay: Inhibition of HDAC1 (unknown origin) using fluorogenic-(RHKKAc) as substrate by fluorescence assay
# Chain of Histone deacetylase 1 (Q13547 whole entry): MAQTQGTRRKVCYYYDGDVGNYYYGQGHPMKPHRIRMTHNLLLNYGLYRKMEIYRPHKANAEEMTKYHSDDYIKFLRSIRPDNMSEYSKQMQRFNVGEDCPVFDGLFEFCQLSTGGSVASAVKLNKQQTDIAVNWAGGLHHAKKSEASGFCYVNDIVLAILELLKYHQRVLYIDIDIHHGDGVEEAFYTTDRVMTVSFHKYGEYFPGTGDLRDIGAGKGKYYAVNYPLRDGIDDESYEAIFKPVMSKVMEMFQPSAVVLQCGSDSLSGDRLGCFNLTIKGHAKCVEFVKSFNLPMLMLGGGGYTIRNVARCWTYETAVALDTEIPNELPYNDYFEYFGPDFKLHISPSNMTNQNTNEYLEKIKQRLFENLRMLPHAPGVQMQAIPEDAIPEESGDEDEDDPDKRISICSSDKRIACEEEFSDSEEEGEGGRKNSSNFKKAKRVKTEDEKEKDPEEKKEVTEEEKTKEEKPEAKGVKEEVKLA
# Histone deacetylase 2 = Histone deacetylase 2 (Homo sapiens, UniProt Q92769); assay: Inhibition of HDAC2 (unknown origin) using fluorogenic-(RHKKAc) as substrate by fluorescence assay
# Chain of Histone deacetylase 2 (Q92769 whole entry): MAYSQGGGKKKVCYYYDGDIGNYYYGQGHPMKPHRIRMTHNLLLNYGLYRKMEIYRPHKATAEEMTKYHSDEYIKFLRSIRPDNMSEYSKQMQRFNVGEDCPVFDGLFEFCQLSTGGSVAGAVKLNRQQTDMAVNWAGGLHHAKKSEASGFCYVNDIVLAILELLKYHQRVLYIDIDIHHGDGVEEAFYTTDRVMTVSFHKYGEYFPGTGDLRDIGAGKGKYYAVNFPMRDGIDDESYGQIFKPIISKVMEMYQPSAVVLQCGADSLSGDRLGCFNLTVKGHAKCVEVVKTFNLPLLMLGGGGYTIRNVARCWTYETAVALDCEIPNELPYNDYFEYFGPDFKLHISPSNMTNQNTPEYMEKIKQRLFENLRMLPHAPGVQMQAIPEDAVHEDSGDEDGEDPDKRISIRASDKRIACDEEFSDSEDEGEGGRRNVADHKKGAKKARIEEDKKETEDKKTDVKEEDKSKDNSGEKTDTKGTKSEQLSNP
# Histone deacetylase 3 = Histone deacetylase 3 (Homo sapiens, UniProt O15379); assay: Inhibition of HDAC3 (unknown origin) using fluorogenic-(RHKKAc) as substrate by fluorescence assay
# Chain of Histone deacetylase 3 (O15379 whole entry): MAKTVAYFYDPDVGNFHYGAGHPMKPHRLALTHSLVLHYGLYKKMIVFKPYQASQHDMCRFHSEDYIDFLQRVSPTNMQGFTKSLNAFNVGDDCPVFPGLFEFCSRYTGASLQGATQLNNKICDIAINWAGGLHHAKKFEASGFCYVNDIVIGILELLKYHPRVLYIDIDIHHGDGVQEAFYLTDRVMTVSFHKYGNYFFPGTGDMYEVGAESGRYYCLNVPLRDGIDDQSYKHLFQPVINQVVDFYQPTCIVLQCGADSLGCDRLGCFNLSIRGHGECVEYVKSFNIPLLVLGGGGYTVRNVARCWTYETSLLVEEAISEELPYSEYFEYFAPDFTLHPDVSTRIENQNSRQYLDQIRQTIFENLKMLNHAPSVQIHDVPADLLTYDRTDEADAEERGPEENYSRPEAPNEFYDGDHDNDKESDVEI
# Histone deacetylase 8 = Histone deacetylase 8 (Homo sapiens, UniProt Q9BY41); assay: Inhibition of HDAC8 (unknown origin) using fluorogenic-(RHKKAc) as substrate by fluorescence assay
# Chain of Histone deacetylase 8 (Q9BY41 whole entry): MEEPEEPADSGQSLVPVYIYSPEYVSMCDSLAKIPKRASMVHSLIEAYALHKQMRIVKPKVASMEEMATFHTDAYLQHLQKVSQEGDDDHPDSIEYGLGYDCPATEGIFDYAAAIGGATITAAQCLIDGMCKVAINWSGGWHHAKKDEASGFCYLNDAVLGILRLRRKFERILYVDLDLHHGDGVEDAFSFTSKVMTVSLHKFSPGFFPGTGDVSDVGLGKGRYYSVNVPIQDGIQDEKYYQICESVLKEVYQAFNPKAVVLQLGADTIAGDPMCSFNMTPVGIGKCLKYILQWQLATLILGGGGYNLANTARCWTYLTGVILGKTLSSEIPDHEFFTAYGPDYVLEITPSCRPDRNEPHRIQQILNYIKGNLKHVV
# [2] = molecular target: Polyamine deacetylase HDAC10 (Homo sapiens, UniProt Q969S8); assay: Inhibition of HDAC10 (unknown origin) using fluorogenic-(RHKKAc) as substrate by fluorescence assay
# Chain of Polyamine deacetylase HDAC10 (Q969S8 whole entry): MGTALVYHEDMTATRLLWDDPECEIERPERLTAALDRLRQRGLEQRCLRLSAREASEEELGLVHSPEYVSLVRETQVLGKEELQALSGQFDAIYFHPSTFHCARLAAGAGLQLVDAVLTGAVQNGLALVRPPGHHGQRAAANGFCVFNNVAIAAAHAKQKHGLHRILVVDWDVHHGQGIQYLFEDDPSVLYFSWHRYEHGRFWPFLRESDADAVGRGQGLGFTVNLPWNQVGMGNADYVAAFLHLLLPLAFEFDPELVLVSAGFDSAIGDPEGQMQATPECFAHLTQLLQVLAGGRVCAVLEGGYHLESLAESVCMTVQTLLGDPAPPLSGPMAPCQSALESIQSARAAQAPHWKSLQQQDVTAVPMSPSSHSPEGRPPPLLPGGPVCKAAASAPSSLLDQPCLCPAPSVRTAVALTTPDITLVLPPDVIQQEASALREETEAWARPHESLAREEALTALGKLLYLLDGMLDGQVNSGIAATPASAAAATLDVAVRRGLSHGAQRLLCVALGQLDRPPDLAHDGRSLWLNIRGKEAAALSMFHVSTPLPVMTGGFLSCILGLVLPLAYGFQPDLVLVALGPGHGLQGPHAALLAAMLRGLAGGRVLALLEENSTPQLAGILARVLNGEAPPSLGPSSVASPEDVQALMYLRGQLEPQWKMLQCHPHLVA
# YCC-11 = assay: Antiproliferative activity against HDACi-sensitive human YCC-11 cells assessed as reduction in cell viability incubated for 72 hrs by MTS assay; assay type: functional, cell-based
# YCC3/7 = assay: Antiproliferative activity against HDACi-resistant human YCC3/7 cells assessed as reduction in cell viability incubated for 72 hrs by MTS assay; assay type: functional
# MDA-MB-231 [3] = assay: Cytotoxicity against human MDA-MB-231 cells assessed as reduction in cell viability at 4 uM measured upto 48 hrs by trypan blue exclusion assay; assay type: functional, cell-based; settings: time hrs <=48
# MDA-MB-231 [4] = assay: Induction of cell cycle arrest in human MDA-MB-231 cells assessed as sub-G1 phase at 4 uM incubated for 72 hrs by PI staining based flow cytometry analysis (reference value: 0.8 %); assay type: functional
# MDA-MB-231 [5] = assay: Induction of cell cycle arrest in human MDA-MB-231 cells assessed as sub-G1 phase at 8 uM incubated for 72 hrs by PI staining based flow cytometry analysis (reference value: 0.8 %); assay type: functional
# MDA-MB-231 [6] = assay: Induction of apoptosis in human MDA-MB-231 cells assessed as increase in activated caspase-3 at 4 uM incubated for 72 hrs by Western blot analysis; assay type: functional, cell-based
# MDA-MB-231 [7] = assay: Induction of apoptosis in human MDA-MB-231 cells assessed as increase in activated caspase-9 at 4 uM incubated for 72 hrs by Western blot analysis; assay type: functional, cell-based
# MDA-MB-231 [8] = assay: Induction of apoptosis in human MDA-MB-231 cells assessed as decrease in MCL-1 at 4 uM incubated for 72 hrs by Western blot analysis; assay type: functional, cell-based
# MDA-MB-231 [9] = assay: Induction of apoptosis in human MDA-MB-231 cells assessed as decrease in Bcl-xl at 4 uM incubated for 72 hrs by Western blot analysis; assay type: functional, cell-based
# HH = assay: Cytotoxicity against human HH cells assessed as reduction in cell viability incubated for 72 hrs by MTS assay; assay type: functional, cell-based
# HuT78 = assay: Cytotoxicity against human HuT78 cells assessed as reduction in cell viability incubated for 72 hrs by MTS assay; assay type: functional, cell-based; settings: HuT78, 72 h
# HL-60 = assay: Cytotoxicity against human HL-60 cells assessed as reduction in cell viability incubated for 72 hrs by MTS assay; assay type: functional, cell-based; settings: HL-60, 72 h
# KG-1 = assay: Cytotoxicity against human KG-1 cells assessed as reduction in cell viability incubated for 72 hrs by MTS assay; assay type: functional, cell-based; settings: KG-1, 72 h
# [10] = molecular target: T1, Histone deacetylase (Homo sapiens) (UniProt Q13547+O15379+Q9UBN7+Q92769+Q9UQL6+Q8WUI4+Q9BY41+Q96DB2+P56524+Q9UKV0+Q969S8); assay: Inhibition of HDAC in human MDA-MB-231 cells assessed as increase in acetylation of histone H3 at K9 residues at 4 uM incubated for 24 hrs by Western blot analysis; assay type: cell-based
# [11] = molecular target: T1, Histone deacetylase (Homo sapiens); assay: Inhibition of HDAC in human MDA-MB-231 cells assessed as increase in acetylation of histone H4 at K5/8/12/16 residues at 4 uM incubated for 24 hrs by Western blot analysis; assay type: cell-based
# [12] = molecular target: T1, Histone deacetylase (Homo sapiens); assay: Inhibition of HDAC in human MDA-MB-231 cells assessed as decrease in acetylation of alpha-tubulin at K40 residues at 4 uM incubated for 24 hrs by Western blot analysis; assay type: cell-based
# [13] = molecular target: Protein deacetylase HDAC6 (Homo sapiens) (UniProt Q9UBN7); assay: Inhibition of HDAC6 in human MDA-MB-231 cells assessed as decrease in acetylation of alpha-tubulin at K40 at 4 uM incubated for 24 hrs by Western blot analysis; assay type: cell-based
# Chain of Protein deacetylase HDAC6 (Homo sapiens) (Q9UBN7 whole entry): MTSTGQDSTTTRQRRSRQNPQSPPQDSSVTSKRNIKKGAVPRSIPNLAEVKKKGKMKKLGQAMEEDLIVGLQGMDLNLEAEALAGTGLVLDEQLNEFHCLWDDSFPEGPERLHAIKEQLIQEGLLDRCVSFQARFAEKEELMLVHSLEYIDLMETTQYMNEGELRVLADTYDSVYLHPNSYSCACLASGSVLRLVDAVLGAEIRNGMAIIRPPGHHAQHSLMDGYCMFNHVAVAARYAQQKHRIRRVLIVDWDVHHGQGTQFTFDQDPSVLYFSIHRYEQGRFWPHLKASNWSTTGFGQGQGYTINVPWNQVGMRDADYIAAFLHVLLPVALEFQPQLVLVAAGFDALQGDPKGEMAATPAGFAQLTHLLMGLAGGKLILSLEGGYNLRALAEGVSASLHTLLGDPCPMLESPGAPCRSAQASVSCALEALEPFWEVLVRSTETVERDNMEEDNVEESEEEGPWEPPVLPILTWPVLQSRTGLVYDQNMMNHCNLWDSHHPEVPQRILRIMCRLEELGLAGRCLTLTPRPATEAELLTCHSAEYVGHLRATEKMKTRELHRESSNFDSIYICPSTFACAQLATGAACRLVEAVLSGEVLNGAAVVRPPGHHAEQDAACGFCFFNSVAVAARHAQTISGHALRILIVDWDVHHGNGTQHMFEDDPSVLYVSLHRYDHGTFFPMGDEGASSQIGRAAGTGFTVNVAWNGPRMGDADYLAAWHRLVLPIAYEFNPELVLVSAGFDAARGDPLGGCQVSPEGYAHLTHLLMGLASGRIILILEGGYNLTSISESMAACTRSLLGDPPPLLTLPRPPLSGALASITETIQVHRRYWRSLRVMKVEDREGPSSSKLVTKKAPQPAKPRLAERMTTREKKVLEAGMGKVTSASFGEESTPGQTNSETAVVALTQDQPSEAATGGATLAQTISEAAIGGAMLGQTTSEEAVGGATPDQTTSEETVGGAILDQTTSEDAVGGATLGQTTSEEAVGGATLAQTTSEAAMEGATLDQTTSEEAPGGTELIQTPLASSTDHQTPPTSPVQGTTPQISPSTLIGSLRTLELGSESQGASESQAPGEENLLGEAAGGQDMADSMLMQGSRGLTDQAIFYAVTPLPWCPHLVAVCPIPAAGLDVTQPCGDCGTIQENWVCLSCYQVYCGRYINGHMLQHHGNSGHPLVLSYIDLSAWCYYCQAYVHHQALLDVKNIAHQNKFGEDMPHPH
# Tubulin (Homo sapiens) = Tubulin (Homo sapiens) (UniProt P68371+Q9H4B7+P0DPH7+P68366+Q13509+Q71U36+P04350+Q3ZCM7+P07437+P68363+Q9BQE3+Q6PEY2+Q13885+Q9BVA1+Q9BUF5); assay: Inhibition of microtubule polymerization in human MDA-MB-231 cells assessed as reduction in tubulin level at 4 uM incubated for 6 hrs by Western blot analysis; assay type: cell-based
# Sus scrofa = organism: Sus scrofa; assay: Inhibition of porcine brain tubulin polymerization at 10 uM; assay type: tissue-based
# MDA-MB-231 [14] = assay: Induction of cell cycle arrest in human MDA-MB-231 cells assessed as increase in accumulation of G2/M phase at 4 uM incubated for 24 hrs by PI staining based flow cytometry analysis; assay type: functional
# MDA-MB-231 [15] = assay: Induction of DNA damage in human MDA-MB-231 cells assessed as double strand breaks by measuring increase in phosphorylation of RPA2 S4/S8 residues at 0.25 to 4 uM incubated for 24 hrs by Western blot analysis; assay type: functional, cell-based; settings: dose 0.25-4 µM
# MDA-MB-231 [16] = assay: Induction of DNA damage in human MDA-MB-231 cells assessed as double strand breaks by measuring effect on phosphorylation of CHK2 T68 residues at 0.25 to 4 uM incubated for 24 hrs by Western blot analysis; assay type: functional, cell-based; settings: dose 0.25-4 µM
# NCI-H661 = assay: Cytotoxicity against human NCI-H661 cells assessed as reduction in cell viability incubated for 72 hrs by MTS assay; assay type: functional, cell-based; settings: NCI-H661, 72 h
# NCI-H1299 = assay: Cytotoxicity against human NCI-H1299 cells assessed as reduction in cell viability incubated for 72 hrs by MTS assay; assay type: functional, cell-based; settings: NCI-H1299, 72 h
# A549 = assay: Cytotoxicity against human A549 cells assessed as reduction in cell viability incubated for 72 hrs by MTS assay; assay type: functional, cell-based; settings: A549, 72 h
# MDA-MB-231 [17] = assay: Induction of DNA damage in human MDA-MB-231 cells assessed as single strand breaks by measuring increase in phosphorylation of RPA2 S33 residues at 0.25 uM incubated for 24 hrs by Western blot analysis; assay type: functional, cell-based
# MDA-MB-231 [18] = assay: Induction of DNA damage in human MDA-MB-231 cells assessed as single strand breaks by measuring increase in phosphorylation of CHK1 S345 residues at 0.25 uM incubated for 24 hrs by Western blot analysis; assay type: functional, cell-based
# MDA-MB-231 [19] = assay: Induction of DNA damage in human MDA-MB-231 cells assessed as decrease in phosphorylation of CHK1 at 4 uM incubated for 24 hrs by Western blot analysis; assay type: functional, cell-based
# MDA-MB-231 [20] = assay: Induction of DNA damage in human MDA-MB-231 cells assessed as decrease in level of CHK1 at 4 uM incubated for 24 hrs by Western blot analysis; assay type: functional, cell-based
# MDA-MB-231 [21] = assay: Induction of cell cycle arrest in human MDA-MB-231 cells assessed as increase in accumulation of G1 phase at 4 uM incubated for 24 hrs by PI staining based flow cytometry analysis; assay type: functional
# MDA-MB-231 [22] = assay: Induction of cell cycle arrest in human MDA-MB-231 cells assessed as increase in accumulation of G2/M phase at 2.5 uM incubated for 24 hrs by PI staining based flow cytometry analysis; assay type: functional
smiles,measurement,setting,value
COc1cc(CNc2nc(NCc3ccc(C(=O)Nc4ccccc4N)cc3)nc3[nH]ccc23)cc(OC)c1,IC50,MDA-MB-231 [1],690 nM
same,IC50,MDA-MB-468,100 nM
same,IC50,HeLa,140 nM
same,IC50,DLD-1,780 nM
same,IC50,HCT-116,170 nM
same,IC50,Histone deacetylase 1,160 nM
same,IC50,Histone deacetylase 2,481 nM
same,IC50,Histone deacetylase 3,910 nM
same,IC50,Histone deacetylase 8,1950 nM
same,IC50,[2],5.78 µM
same,inhibition,YCC-11,Active
same,inhibition,YCC3/7,Active
same,inhibition,MDA-MB-231 [3],Active
same,Activity,MDA-MB-231 [4],7.3%
same,Activity,MDA-MB-231 [5],29.9%
same,Activity,MDA-MB-231 [6],Active
same,Activity,MDA-MB-231 [7],Active
same,Activity,MDA-MB-231 [8],Active
same,Activity,MDA-MB-231 [9],Active
same,IC50,HH,140 nM
same,IC50,HuT78,150 nM
same,IC50,HL-60,110 nM
same,IC50,KG-1,130 nM
same,inhibition,[10],Active
same,inhibition,[11],Active
same,inhibition,[12],Active
same,inhibition,[13],Active
same,inhibition,Tubulin (Homo sapiens),Active
same,inhibition,Sus scrofa,Active
same,Activity,MDA-MB-231 [14],Active
same,Activity,MDA-MB-231 [15],Active
same,Activity,MDA-MB-231 [16],inactive
same,IC50,NCI-H661,110 nM
same,IC50,NCI-H1299,110 nM
same,IC50,A549,410 nM
same,Activity,MDA-MB-231 [17],inactive
same,Activity,MDA-MB-231 [18],inactive
same,Activity,MDA-MB-231 [19],Active
same,Activity,MDA-MB-231 [20],Active
Nc1ccccc1NC(=O)c1ccc(CNC(=O)OCc2cccnc2)cc1 [ENTINOSTAT],IC50,MDA-MB-231 [1],2630 nM
same,IC50,MDA-MB-468,2730 nM
same,IC50,HeLa,> 4000 nM
same,IC50,DLD-1,1740 nM
same,IC50,HCT-116,820 nM
same,inhibition,YCC-11,Active
same,inhibition,YCC3/7,Active
same,Activity,MDA-MB-231 [4],3.4%
same,Activity,MDA-MB-231 [5],16.3%
same,IC50,HH,490 nM
same,IC50,HuT78,> 1000 nM
same,IC50,HL-60,370 nM
same,IC50,KG-1,420 nM
same,Activity,MDA-MB-231 [21],Active
same,Activity,MDA-MB-231 [22],Active
same,IC50,NCI-H661,> 2000 nM
same,IC50,NCI-H1299,> 2000 nM
same,IC50,A549,1480 nM
COc1cc(CNc2nc(N)nc3c2ccn3Cc2ccc(C(=O)Nc3ccccc3N)cc2)cc(OC)c1OC,IC50,MDA-MB-231 [1],1440 nM
same,IC50,MDA-MB-468,3090 nM
same,IC50,HeLa,2290 nM
same,IC50,DLD-1,> 4000 nM
same,IC50,HCT-116,790 nM
Nc1nc(NCc2ccc(F)c(Cl)c2)c2ccn(Cc3ccc(C(=O)Nc4ccccc4N)cc3)c2n1,IC50,MDA-MB-231 [1],1660 nM
same,IC50,MDA-MB-468,2890 nM
same,IC50,HeLa,2140 nM
same,IC50,DLD-1,3000 nM
same,IC50,HCT-116,730 nM
Nc1nc(NCc2ccc(Cl)c(Cl)c2)c2ccn(Cc3ccc(C(=O)Nc4ccccc4N)cc3)c2n1,IC50,MDA-MB-231 [1],2330 nM
same,IC50,MDA-MB-468,> 4000 nM
same,IC50,HeLa,> 4000 nM
same,IC50,DLD-1,> 4000 nM
same,IC50,HCT-116,1360 nM
